# Results taken from patent publication US20220202805A1, “REBAMIPIDE FOR USE IN PREVENTION AND/OR TREATMENT OF SYNUCLEINOPATHIES” (SQUARE POWER LTD., priority 2019, published 2022).
# Tested on: β-sitosterol β-D-glucoside (BSSG) model
# Test: BSSG-induced Parkinson's disease model in rats, 10-month study
# Type: in vivo, Male Sprague Dawley rats
# Excerpt: Increased intestinal permeability may lead to a leakage of various substances (such as bacterial toxins and xenobiotics), that are normally unable to cross the gut wall, from the intestine into the body proper, which may trigger synthesis of misfolded alpha-synuclein in the enteric wall and its transfer to the brain via n. vagus. The increased intestinal permeability is a typical consequence of epithelial dysfunction caused by all sorts of enteric inflammation. Therefore, induction of the inflammatory process may be used for setting of disease models. […] When fed to rodents, cycad flour triggers a progressive development of neurological deficits, with behavioral and cellular features that closely approximate those observed in patients. Besides neurotoxic properties, BSSG directly interacts with epithelium. It loosens tight junctions in mucosa via increase of intracellular calcium levels and thus increases permeability of epithelium.
# Male Sprague Dawley rats were used in a study performed during 10 months. The animals were put on the baseline diet consisting of BSSG, 3 mg/day, 5 doses weekly p.o. in Month 1 to Month 4. […]
# The observed parameters: • 1. Quantitative analysis of misfolded α-synuclein in substantia nigra lysate • 2. Quantitative analysis of misfolded α-synuclein in intestinal lysate • 3. Quantitative analysis of misfolded α-synuclein in olfactory bulb lysate • 4. […]
# Final analysis at Month 10 to investigate neurodegenerative disease progression: after in vivo tests (locomotion, coordination, and cognitive) a subgroup of animals in each experimental group is sacrificed. […] In addition inflammatory markers such as TNF-α, IL-6, etc. in brain section samples and serum are measured.
# In order to evaluate the overall efficacy of rebamipide in Parkinson's disease a Cumulative PD Score was calculated. […]
compound,measurement,setting,value
"O=C(NC(Cc1cc(=O)[nH]c2ccccc12)C(=O)O)c1ccc(Cl)cc1 (stereo not drawn) [Rebamipide, 2-[(4-chlorobenzoyl)amino]-3-(2-oxo-1H-quinolin-4-yl)propanoic acid]",alpha-synuclein aggregates in comparison with the placebo group,"rebamipide 30 or 200 mg/kg/day p.o. in feed, BSSG 3 mg/day, histological analysis, preliminary results",reduced
same,parameters tested including functional tests,"rebamipide 30 or 200 mg/kg/day p.o. in feed, BSSG 3 mg/day, vs placebo, preliminary results",significant improvement
same,"Cumulative PD score, better as compared to the placebo group","weighted score of α-synuclein, functional, permeability, inflammatory, olfactory, retinal tests and mortality, rebamipide treated group vs placebo",more than 20%
